Values of other authors, collected in patent publication US20180242917A1, “SYSTEMS AND METHODS FOR DETERMINING IMAGE QUALITY AND MODELS BASED ON CONTRAST INJECTION PROTOCOLS” (Duke University, priority 2015, published 2018).

Parameters: unit not given here
Details: used to calculate total EC fluid volume (18.9 L incl. 3 L plasma) for a 70-kg adult patient

apparent volume value of distribution: 0.27
Compound: CC(=O)N(CC(O)CO)c1c(I)c(C(=O)NCC(O)CO)c(I)c(C(=O)NCC(O)CO)c1I (stereo not shown) [iohexol]
